Test results from patent US11116747B2, “Compositions comprising proanthocyanidins and oenothein B” (Nugerontix Limited, priority 2014, dated 2021).

What was measured:
endothelin-1 (ET-1) mRNA = experiment: Endothelin-1 mRNA levels in endothelial cells by qRT-PCR; format: cell-based, bovine; conditions: 24 h; OTb 1 μg/ml, Ap-OPC 1 μg/ml; normalised to RNA polymerase 2; FIG. 4(C)
Protocol: (§1) The effects on endothelin-1 synthesis of purified procyanidins and ellagitannins, either alone or in combination, are tested on human, bovine or porcine aortic endothelial cells cultured in multi-well plates. Cells are grown in a CO2 incubator with specific growth media until becoming confluent. Purified extracts, chromatography fractions, or isolated procyanidins and ellagitannins are evaluated after dilution in cell culture media and then incubated for up to 24 h with the cultured cells. At the end of the incubation period cell culture media samples are collected, and endothelin-1 synthesis is determined by immunoassay of the media samples. ET-1 release for each treated well is expressed as a percentage of basal release from control wells containing cells incubated with cell culture medium alone. Data are compared and analysed for statistically significant differences using life sciences software such as Graphpad Prism (available from www.graphpad.com). At the end of the incubation period cells are lysed to obtain mRNA to measure changes in gene expression that indicate improved endothelial function. Analyses of relative levels of mRNA transcripts are undertaken by quantitative reverse transcription polymerase chain reaction (qRT-PCR) (Journal of Agricultural and Food Chemistry, 2010, 58: 4008-13). […]

[1] = tested on: bovine aortic endothelial cells; experiment: Binding of biotinylated-OPC to endothelial cells (neutravidin-horseradish peroxidase/TMB detection); format: cell-based; conditions: oenothein B 30 min preincubation, then biotinylated-OPC 1 μg/ml with oenothein B 30 min, FIG. 1(C)
Protocol: Bovine aortic endothelial cells were incubated with oenothein B (μg/ml) from pomegranate juice for 30 min before addition of biotinylated-OPC (1 μg/ml) alone or with oenothein B (μg/ml) for 30 min. After removal of the incubation mixture, bound biotinylated-OPC was detected by incubation with neutravidin-horseradish peroxidase for 1 h; followed by addition of TMB substrate for 30 min after cells had been rinsed twice to remove excess neutravidin-horseradish peroxidase. Binding is indicated relative to biotinylated-OPC alone after subtraction of background signal. (All data are shown as mean±SD; *=P<0.05; **=P<0.01; ***=P<0.001 indicates significant differences from basal or control values). […] From this it can be concluded that oenothein B increases the affinity of endothelial cells for procyanidins, and enhances the effectiveness of procyanidins for reversing endothelial dysfunction.

endothelin-1 synthesis = experiment: Inhibition of endothelin-1 synthesis by endothelial cells (immunoassay of conditioned media); format: cell-based, bovine; conditions: for endothelin-1 synthesis, percentage of basal values: Rb-ET 2 μg/ml, GS-OPC 1 μg/ml, alone or in combination
Protocol: The effects on endothelin-1 synthesis of purified procyanidins and ellagitannins, either alone or in combination, are tested on human, bovine or porcine aortic endothelial cells cultured in multi-well plates. Cells are grown in a CO2 incubator with specific growth media until becoming confluent. Purified extracts, chromatography fractions, or isolated procyanidins and ellagitannins are evaluated after dilution in cell culture media and then incubated for up to 24 h with the cultured cells. At the end of the incubation period cell culture media samples are collected, and endothelin-1 synthesis is determined by immunoassay of the media samples. ET-1 release for each treated well is expressed as a percentage of basal release from control wells containing cells incubated with cell culture medium alone. Data are compared and analysed for statistically significant differences using life sciences software such as Graphpad Prism (available from www.graphpad.com). At the end of the incubation period cells are lysed to obtain mRNA to measure changes in gene expression that indicate improved endothelial function. Analyses of relative levels of mRNA transcripts are undertaken by quantitative reverse transcription polymerase chain reaction (qRT-PCR) (Journal of Agricultural and Food Chemistry, 2010, 58: 4008-13).
Oenothein B (>95% purity) was purified from pomegranate juice by Sephadex LH20 chromatography and reverse-phase HPLC (step 1—Apex Prepsil 8 μm C-18 10×250 mm HPLC column—Jones Chromatography; step 2 Luna 5 μm PFP(2) 4.6×250 mm HPLC column—Phenomenex). Ability to modify endothelial function was assessed by incubating oenothein B with bovine aortic endothelial cells and measuring endothelin-1 synthesis following previously described methods (Journal of Agricultural and Food Chemistry, 2010, 58: 4008-13).
Biologically active biotin-labelled apple oligomeric procyanidins were prepared as follows: apple polyphenol extract was fractionated on Sephadex LH20 to obtain a fraction enriched in apple oligomeric procyanidins (OPC) tetramers to hexamers. The fraction was dried, re-dissolved in dimethyl formamide and reacted with the tetrafluorophenyl ester of triethyleneglycol-biotin (Thermo Scientific EZ-Link™ TFP-PEG3-Biotin). […]
Ellagitannins: oenothein B (OTb, 1 μg/ml), raspberry seed extract (Rb-ET 2 μg/ml); oligomeric procyanidins (OPC): grape seed extract (GS-OPC, 1 μg/ml) and apple extract (Ap-OPC, 1 μg/ml) purified as above, were incubated either alone, or in combination, with bovine aortic endothelial cells for 6 h and 24 h (FIGS. 2(A) and 2(B)). […] Statistical differences were determined by ANOVA (**=P<0.01; ***=P<0.001 indicates significant difference compared to basal values; ^+++=P<0.001 compared to the individual components of the combinations alone). […]

[2] = tested on: endothelial nitric oxide synthase (eNOS) mRNA; experiment: eNOS mRNA levels in endothelial cells by qRT-PCR; format: cell-based, bovine; conditions: 24 h; OTb 1 μg/ml, Ap-OPC 1 μg/ml; normalised to RNA polymerase 2; FIG. 4(B)
Protocol: as §1

[3] = tested on: Kruppel-like factor 2 (KLF2) mRNA; experiment: KLF2 mRNA levels in endothelial cells by qRT-PCR; format: cell-based, bovine; conditions: 24 h; OTb 1 μg/ml, Ap-OPC 1 μg/ml; normalised to RNA polymerase 2; FIG. 4(A)
Protocol: as §1

`O=C(O[C@@H]1[C@H]2OC(=O)c3cc(O)c(O)c(O)c3Oc3cc4c(c(O)c3O)-c3c(cc(O)c(O)c3O)C(=O)OC[C@H]3O[C@@H](O)[C@H](OC(=O)c5cc(O)c(O)c(O)c5Oc5cc6c(c(O)c5O)-c5c(cc(O)c(O)c5O)C(=O)O[C@@H]1[C@@H](COC6=O)O[C@H]2O)[C@@H](OC(=O)c1cc(O)c(O)c(O)c1)[C@@H]3OC4=O)c1cc(O)c(O)c(O)c1` [oenothein B] was tested, and the “endothelin-1 (ET-1) mRNA levels, ratio to control” value (endothelin-1 (ET-1) mRNA) was “largely unaffected”, the “binding of biotinylated-OPC relative to biotinylated-OPC alone” value [1] was “binding of procyanidins increases as oenothein B concentration increases” and the “endothelin-1 synthesis, percentage of basal values” (endothelin-1 synthesis; 6 h incubation, OTb 1 μg/ml, Ap-OPC 1 μg/ml, FIG. 2(A)) was “inhibited endothelin-1 synthesis”. The endothelin-1 total synthesis (endothelin-1 synthesis; 24 h, OTb 1 μg/ml, Ap-OPC 1 μg/ml, Example 19, FIG. 4(D)) was “largely unaffected”, the “endothelin-1 synthesis, percentage of basal values” (endothelin-1 synthesis; 24 h incubation, OTb 1 μg/ml, Ap-OPC 1 μg/ml, FIG. 2(B)) was “much reduced” and the “inhibition of endothelin-1 synthesis” value (endothelin-1 synthesis; bovine aortic endothelial cells, FIG. 1(A), 1(B)) was “concentration dependent”. The “eNOS mRNA levels, ratio to control” value [2] was “little effect” and the “KLF2 mRNA levels, ratio to control” value [3] was “relatively insignificant”.
